In patent publication US6342335B1, “Polymethine compounds, method of producing same, and use thereof” (Yamamoto Chemicals, Inc., priority 1999, dated 2002):

What was measured:
[1] = Maximum absorption wavelength (λmax) in diacetone alcohol; format: physicochemical
Experimental: The maximum absorption wavelength (λmax) of the polymethine compound of the present invention in diacetone alcohol as well as those of known Compound A and Compound B were measured.

[2] = Solubility test in methyl ethyl ketone; format: physicochemical; conditions: 25° C. overnight, visual inspection for insoluble matter
Experimental: The solubility of the polymethine compound of the invention in methyl ethyl ketone as well as the solubilities of said known Compound A and Compound B were measured. Solubility measurements were carried out by the following method.
A 5 ml screw tube was charged with 200 mg of each polymethine compound and 1 ml of methyl ethyl ketone and agitated for dissolution with Mix-Rotor at 25° C. overnight. Each sample was visually inspected for insoluble matter. When no insoluble residue was found, the solubility was rated ≧20%. When an insoluble residue was found, the solubility was rated less than 20%.

SMILES | λmax [1] | Solubility (g/ml) [2]
COCCN1/C(=C\C=C2/CCCC(/C=C/C3=[N+](CCOC)c4ccccc4C3(C)C)=C2Cl)C(C)(C)c2ccccc21 [Compound A, reference compound] | 788 nm | 
COCCN1/C(=C\C=C2/CCCC(/C=C/C3=[N+](CCOC)c4c(C)cc(OC)cc4C3(C)C)=C2Cl)C(C)(C)c2cc(OC)cc(C)c21 [Compound (55), 2-(2-{2-chloro-3-[(1,3-dihydro-3,3,7-trimethyl-5-methoxy-1-methoxyethyl-2H-indol-2-ylidene)ethylidene]-1-cyclohexen-1-yl}ethenyl)-3,3,7-trimethyl-5-methoxy-1-methoxyethylindolium=tetrafluoroborate] | 822 nm | ≧20%
